The text below walks through data of ChEMBL document CHEMBL5518199, “Discovery of Effective Dual PROTAC Degraders for Neurodegenerative Disease-Associated Aggregates” (J Med Chem, 2024).

Data set [1] in a line: in vivo. The settings on record: C57BL/6, mouse, plasma, iv, 8 mg/kg.
Data set [2] in a line: in vivo. The settings on record: C57BL/6, mouse, brain, iv, 8 mg/kg.
A short description of data set [3]: in vivo. Particulars: C57BL/6, mouse, plasma, iv, 8 mg/kg. The source holds these as a separate data set.
A short description of data set [4]: in vivo. The settings on record: C57BL/6, mouse, brain, iv, 8 mg/kg. The source holds these as a separate data set.
Data set [5] can be described thus: in vivo. Particulars: C57BL/6, mouse, plasma, iv, 8 mg/kg. The source holds these as a separate data set.
A short description of data set [6]: in vivo. Particulars: C57BL/6, mouse, brain, iv, 8 mg/kg. This is another data set of the same source.
Data set [7] is described as follows: in vivo. Particulars: C57BL/6, mouse, iv, 8 mg/kg.
A short description of data set [8]: in vivo. The settings on record: rat, iv, 8 mg/kg.
The nature of data set [9]: in vivo. The settings on record: C57BL/6, mouse, iv, 8 mg/kg. The source holds these as a separate data set.
Data set [10] is described as follows: in vivo. Particulars: rat, iv, 8 mg/kg. The source holds these as a separate data set.
The nature of data set [11]: in vivo. Particulars: rat, iv, 8 mg/kg. This is another data set of the same source.
A short description of data set [12]: in vivo. Particulars: C57BL/6, mouse, iv, 8 mg/kg. The source holds these as a separate data set.
Data set [13] in a line: in vivo. Particulars: rat, iv, 8 mg/kg. The source holds these as a separate data set.
Data set [14] in a line: in vivo. Particulars: C57BL/6, mouse, iv, 8 mg/kg. This is another data set of the same source.
Data set [15] in a line: in vivo. Particulars: rat, iv, 8 mg/kg. The source holds these as a separate data set.
A short description of data set [16]: in vivo. Particulars: C57BL/6, mouse, brain, iv, 8 mg/kg. The source holds these as a separate data set.
Data set [17] is described as follows: in vitro. The settings on record: C57BL/6, mouse, plasma.
Data set [18] in a line: in vitro. The settings on record: C57BL/6, mouse, brain.

In general, half-life refers to the time needed for the level to fall by half in the phase considered. The low end stands for rapid decline, the high end for slow decline. The term AUC denotes the area under the concentration-time curve, a measure of exposure. High values mean more exposure, low ones less exposure. Broadly, the clearance is the volume of plasma or blood freed of the substance per unit of time. The low end stands for inefficient removal, the high end for efficient removal. Usually Vd stands for the apparent volume that relates the amount in the body to the concentration in plasma or blood. A word on the AUC(0-t): it is exposure summed from dosing to a finite time, without extrapolation to infinity. What is called AUC(0-inf) is total exposure, with the tail of the curve extrapolated. Higher therefore signals high exposure. One may read the fraction unbound as free concentration divided by total concentration. A low value points to little free substance. `Cc1ccc2nc(-c3ccc(NCCOCCOCCOCCNC(=O)COc4cccc5c4C(=O)N(C4CCC(=O)NC4=O)C5=O)cc3)sc2c1` (stereo not drawn): the results for the concentration at 0.25 h in the data set “in vivo [1]” and in the data set “in vivo [2]” were 67.2 µM and 1730 nM, respectively. Besides, the half-life at 24 h was 194 min in the data set “in vivo [3]”, 253 min in “in vivo [4]” and 227 min in “in vivo [11]”. For the same compound, the AUC at 24 h in the data set “in vivo [5]” was 109 µM·h; in the data set “in vivo [6]”, 6.02 µM·h. The results for the clearance at 24 h in “in vivo [7]” and in “in vivo [8]” were 1.68 mL/min/kg and 2 mL/min/kg, respectively. In addition, the Vd at 24 h came to 0.48 L/kg in the data set “in vivo [9]” and 0.92 L/kg in “in vivo [10]”. Further, the AUC(0-t) at 24 h worked out at 109 µM·h in “in vivo [12]” and 65.4 µM·h in “in vivo [13]”. The values for the AUC(0-inf) at 24 h in the data set “in vivo [14]” and in the data set “in vivo [15]” were 109 µM·h and 65.5 µM·h, respectively. Also, in the data set “in vivo [16]”, the concentration at 168.25 h was determined as 2700 nM. Further, the unbound share (fraction unbound) at 24 h is 0.442 in “in vitro [17]” and 0.397 in the data set “in vitro [18]”.
